# Reference: article PMC6695355, “Alanine Scanning Studies of the Antimicrobial Peptide Aurein 1.2” (Probiotics and Antimicrobial Proteins, 2018)
# Where a SMILES comes first, the peptide text is derived from it.
# Legend:
# E. coli ATCC 25922 = assay type: cell-based, Escherichia coli; settings: ATCC 25922, 18 h
# In short: (§1)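 Broth microdilution per CLSI, 1–512 μg/mL; bacteria 0.5 × 10^5 CFU/mL in MHB, 37 °C 18 h; C. albicans 2 × 10^3 CFU/mL in RPMI-1640, 24 h; MIC = lowest concentration visibly inhibiting growth. MBEC: 24-h biofilms, PBS-rinsed, compound 24 h at 37 °C, resazurin read after 1 h. MBIC: compound with inoculum 24 h, then resazurin 1 h; cut-off ≤10% reduction versus controls.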
# [1] = test system: E. coli ATCC 25922 biofilm; assay type: cell-based, Escherichia coli; settings: ATCC 25922, 24 h
# In short: as §1
# [2] = test system: E. coli ATCC 25922 biofilm formation; assay type: cell-based, Escherichia coli; settings: ATCC 25922, 24 h
# In short: as §1
# [3] = test system: human red blood cells (RBCs); test: Hemolysis assay; assay type: cell-based; settings: red cells of human, 1 h
# In short: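 Fresh EDTA-anticoagulated human erythrocytes were PBS-washed and used at 4% (v/v) with peptide at 1–256 μg/mL in PBS for 1 h at 37 °C. Hemoglobin release in the supernatant was read at 540 nm. PBS set 0% and 1% Triton X-100 set 100% hemolysis; run in triplicate.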
# in vitro = in vitro ADME; settings: bovine, serum
# In short: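 Peptides incubated in 25% (v/v) fetal bovine serum in PBS at 37 °C, quenched with ice-cold acetonitrile at t0 and 6 h. Intact peptide quantified by RP-HPLC-MS in selected ion recording mode; % remaining = peak area at 6 h / peak area at t0.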
# P. aeruginosa ATCC 9027 = assay type: cell-based, Pseudomonas aeruginosa; settings: ATCC 9027, 18 h
# In short: as §1
# [4] = test system: P. aeruginosa ATCC 9027 biofilm formation; assay type: cell-based, Pseudomonas aeruginosa; settings: ATCC 9027, 24 h
# In short: as §1
# [5] = test system: P. aeruginosa ATCC 9027 biofilm; assay type: cell-based, Pseudomonas aeruginosa; settings: ATCC 9027, 24 h
# In short: as §1
# [6] = test system: S. aureus ATCC 25923 biofilm formation; assay type: cell-based, Staphylococcus aureus; settings: ATCC 25923, 24 h
# In short: (§2)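 Broth microdilution (CLSI), 1–512 μg/mL, 37 °C; S. aureus 0.5 × 10^5 CFU/mL MHB 18 h; C. albicans 2 × 10^3 CFU/mL RPMI-1640 24 h; MIC = no visible growth. Biofilm: 24 h preformed, PBS-washed, compound 24 h (MBEC) or compound + inoculum 24 h (MBIC); resazurin 1 h, cut-off ≤10%.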
# [7] = test system: S. aureus ATCC 25923 biofilm; assay type: cell-based, Staphylococcus aureus; settings: ATCC 25923, 24 h
# In short: as §2
# S. aureus ATCC 25923 = assay type: cell-based, Staphylococcus aureus; settings: ATCC 25923, 18 h
# In short: as §2
# [8] = test system: C. albicans ATCC 10231 biofilm; assay type: cell-based, Candida albicans; settings: ATCC 10231, 24 h
# In short: as §2
# C. albicans ATCC 10231 = assay type: cell-based, Candida albicans; settings: ATCC 10231, 24 h
# In short: as §2
# [9] = test system: C. albicans ATCC 10231 biofilm formation; assay type: cell-based, Candida albicans; settings: ATCC 10231, 24 h
# In short: as §2
# [10] = test system: E. faecalis PCM 2673 biofilm formation; assay type: cell-based, Enterococcus faecalis; settings: 24 h
# In short: as §1
# [11] = test system: E. faecalis PCM 2673 biofilm; assay type: cell-based, Enterococcus faecalis; settings: 24 h
# In short: as §1
# E. faecalis PCM 2673 = assay type: cell-based, Enterococcus faecalis; settings: PCM 2673, 18 h
# In short: as §1
# [12] = assay type: physicochemical; settings: pH 7.4
SMILES,"MIC, E. coli ATCC 25922 (E. coli ATCC 25922) [µg/mL]","MBEC, E. coli ATCC 25922 [1] [µg/mL]","MBIC, E. coli ATCC 25922 [2] [µg/mL]",Percentage of hemolysis at 1 μg/mL [3] [%],Percentage of hemolysis at 2 μg/mL [3] [%],Percentage of hemolysis at 4 μg/mL [3] [%],Percentage of hemolysis at 8 μg/mL [3] [%],Percentage of hemolysis at 16 μg/mL [3] [%],Percentage of hemolysis at 32 μg/mL [3] [%],Percentage of hemolysis at 64 μg/mL [3] [%],Percentage of hemolysis at 128 μg/mL [3] [%],Percentage of hemolysis at 256 μg/mL [3] [%],"remaining at 6 h, 0.125 mg/mL (in vitro) [%]","MBIC, P. aeruginosa ATCC 9027 [4] [µg/mL]","MBEC, P. aeruginosa ATCC 9027 [5] [µg/mL]","MBIC, S. aureus ATCC 25923 [6] [µg/mL]","MBEC, S. aureus ATCC 25923 [7] [µg/mL]","MIC, S. aureus ATCC 25923 (S. aureus ATCC 25923) [µg/mL]","MBEC, C. albicans ATCC 10231 [8] [µg/mL]","MIC, C. albicans ATCC 10231 (C. albicans ATCC 10231) [µg/mL]",also measured
CC[C@H](C)[C@H](NC(=O)[C@H](CCCCN)NC(=O)[C@H](C)NC(=O)[C@@H](NC(=O)[C@@H](NC(=O)[C@H](CC(=O)O)NC(=O)[C@H](Cc1ccccc1)NC(=O)[C@H](CC(C)C)NC(=O)CN)[C@@H](C)CC)[C@@H](C)CC)C(=O)N[C@@H](C)C(=O)N[C@@H](CCC(=O)O)C(=O)N[C@@H](CO)C(=O)N[C@@H](Cc1ccccc1)C(N)=O [Peptide K7A] (H-GLFDIIAKIAESF-NH2),> 512,> 512,64,0.2,0.1,0.0,0.0,0.1,3.4,0.7,3.0,4.6,59,> 512,> 512,> 512,> 512,> 512,> 512,> 512,"MIC, P. aeruginosa ATCC 9027 (P. aeruginosa ATCC 9027): > 512 µg/mL; MBIC, C. albicans ATCC 10231 [9]: 4 µg/mL; MBIC, E. faecalis PCM 2673 [10]: > 512 µg/mL; MBEC, E. faecalis PCM 2673 [11]: > 512 µg/mL; MIC, E. faecalis PCM 2673 (E. faecalis PCM 2673): 512 µg/mL; Solubility in surfactant-free phosphate buffer [12]: poor solubility"
CC[C@H](C)[C@H](NC(=O)[C@H](C)NC(=O)[C@H](CCCCN)NC(=O)[C@@H](NC(=O)[C@@H](NC(=O)[C@H](CC(=O)O)NC(=O)[C@H](Cc1ccccc1)NC(=O)[C@H](CC(C)C)NC(=O)CN)[C@@H](C)CC)[C@@H](C)CC)C(=O)N[C@@H](C)C(=O)N[C@@H](CCC(=O)O)C(=O)N[C@@H](CO)C(=O)N[C@@H](Cc1ccccc1)C(N)=O [Peptide K8A] (H-GLFDIIKAIAESF-NH2),128,> 512,32,0.1,0.0,0.0,0.0,0.0,5.5,16.1,49.3,89.6,36,> 512,> 512,> 512,> 512,> 512,> 512,64,"MIC, P. aeruginosa ATCC 9027 (P. aeruginosa ATCC 9027): > 512 µg/mL; MBIC, C. albicans ATCC 10231 [9]: 4 µg/mL; MBIC, E. faecalis PCM 2673 [10]: 128 µg/mL; MBEC, E. faecalis PCM 2673 [11]: > 512 µg/mL; MIC, E. faecalis PCM 2673 (E. faecalis PCM 2673): 64 µg/mL; Solubility in surfactant-free phosphate buffer [12]: poor solubility"
CC[C@H](C)[C@H](NC(=O)[C@H](CCCCN)NC(=O)[C@H](CCCCN)NC(=O)[C@@H](NC(=O)[C@@H](NC(=O)[C@H](CC(=O)O)NC(=O)[C@H](Cc1ccccc1)NC(=O)[C@H](CC(C)C)NC(=O)CN)[C@@H](C)CC)[C@@H](C)CC)C(=O)N[C@@H](C)C(=O)N[C@@H](CCC(=O)O)C(=O)N[C@@H](C)C(=O)N[C@@H](Cc1ccccc1)C(N)=O [Peptide S12A] (H-GLFDIIKKIAEAF-NH2),64,> 512,32,0.0,0.0,0.0,0.0,1.2,6.5,12.0,15.4,23.5,77,>512,> 512,32,> 512,32,256,32,"MBIC, C. albicans ATCC 10231 [9]: 2 µg/mL; MBIC, E. faecalis PCM 2673 [10]: 128 µg/mL; MBEC, E. faecalis PCM 2673 [11]: 128 µg/mL; MIC, E. faecalis PCM 2673 (E. faecalis PCM 2673): 64 µg/mL; Solubility in surfactant-free phosphate buffer [12]: poor solubility"
CC[C@H](C)[C@H](NC(=O)[C@H](CCCCN)NC(=O)[C@H](CCCCN)NC(=O)[C@@H](NC(=O)[C@@H](NC(=O)[C@H](CC(=O)O)NC(=O)[C@H](Cc1ccccc1)NC(=O)[C@H](CC(C)C)NC(=O)CN)[C@@H](C)CC)[C@@H](C)CC)C(=O)N[C@@H](C)C(=O)N[C@@H](CCC(=O)O)C(=O)N[C@@H](CO)C(=O)N[C@@H](Cc1ccccc1)C(N)=O [aurein 1.2] (H-GLFDIIKKIAESF-NH2),64,64,128,0.0,0.1,0.0,0.0,0.4,0.5,4.5,19.2,58.8,65,128,512,128,128,128,256,32,"MIC, P. aeruginosa ATCC 9027 (P. aeruginosa ATCC 9027): 256 µg/mL; MBIC, C. albicans ATCC 10231 [9]: 2 µg/mL; MBIC, E. faecalis PCM 2673 [10]: 128 µg/mL; MBEC, E. faecalis PCM 2673 [11]: > 512 µg/mL; MIC, E. faecalis PCM 2673 (E. faecalis PCM 2673): 64 µg/mL"
